Reference: US20260224589A1 (priority 2023, published 2026)
Like-named read-outs stand apart in the source and are kept apart here.

Experiments:
SW-620 = assay: phospho-ERK HTRF assay in SW-620 cells, 4 h treatment; assay type: cell-based; details: Homo sapiens, Table 3, read-out: pERK Inhibition SW-620 IC50
AsPC-1 cells = assay: phospho-ERK HTRF assay in AsPC-1 cells, 4 h treatment; assay type: cell-based; details: Homo sapiens, ASPC1
[1] = AsPC-1, 4H, Table 1a class column, read-out: pERK IC50 activity range (*)
[2] = AsPC-1, 4H, Table 1a, read-out: PERK IC50 (AsPC-1, 4H)
[3] = AsPC-1, 4h, Table 1b, read-out: PERK IC50 (AsPC-1, 4h)

Row | Structure (SMILES) | IC50 (AsPC-1 cells; [1]) [nM] | IC50 (AsPC-1 cells; [2]) [nM] | IC50 (AsPC-1 cells; [3]) [nM] | further results
1 | CN(C)C(=O)c1nn2c(c1Cl)CN(c1nc(OC[C@@]34CCCN3C[C@H](F)C4)nc3c1CO[C@H](c1c(C(F)(F)F)ccc(N)c1F)C3)CCC2 (single isomer, unassigned) [Example 1] |  |  |  | IC50 (SW-620): 14.4 nM; IC50 (AsPC-1 cells; Table 3, read-out: pERK Inhibition AsPC-1 IC50): 12.8 nM
2 | CN(C)C(=O)c1nn2c(c1Cl)CN(c1nc(OC[C@@]34CCCN3C/C(=C\F)C4)nc3c1COC(c1cc(N)cc(F)c1C(F)(F)F)C3)CCC2 (stereo partly drawn) [compound 246] | 10 to 30 | 15.9 |  | 
3 | Cc1cc(N)c(F)c([C@@H]2Cc3nc(OC[C@@]45CCCN4C[C@H](F)C5)nc(N4CCCn5nc(C(=O)N(C)C)c(Cl)c5C4)c3CO2)c1C(F)(F)F [215a, 5-((S)-7-(3-amino-2-fluoro-5-methyl-6-(trifluoromethyl)phenyl)-2-(((2R,7aS)-2-fluorotetrahydro-1H-pyrrolizin-7a(5H)-yl)methoxy)-7,8-dihydro-5H-pyrano[4,3-d]pyrimidin-4-yl)-3-chloro-N,N-dimethyl-5,6,7,8-tetrahydro-4H-pyrazolo[1,5-a][1,4]diazepine-2-carboxamide] |  |  | < 10 | 
4 | Cn1cc2c(n1)CCCN(c1nc(OC[C@@]34CCCN3C[C@H](F)C4)nc3c1COC(c1c(C(F)(F)F)ccc(N)c1F)C3)C2 (stereo partly drawn) [compound 229] | > 500 | > 10000 |  | 
5 | CN(C)C(=O)c1nn2c(c1Cl)CN(c1nc(OC[C@@]34CCCN3C[C@H](F)C4)nc3c1CO[C@H](c1c(F)c(N)cc(F)c1C(F)(F)F)C3)CCC2 [214a, 5-((S)-7-(3-amino-2,5-difluoro-6-(trifluoromethyl)phenyl)-2-(((2R,7aS)-2-fluorotetrahydro-1H-pyrrolizin-7a(5H)-yl)methoxy)-7,8-dihydro-5H-pyrano[4,3-d]pyrimidin-4-yl)-3-chloro-N,N-dimethyl-5,6,7,8-tetrahydro-4H-pyrazolo[1,5-a][1,4]diazepine-2-carboxamide] |  |  | < 10 | 
6 | CN(C)C(=O)c1nn2c(c1Cl)CN(c1nc(OC[C@@]34CCCN3C/C(=C\F)C4)nc3c1CO[C@@H](c1c(F)c(N)cc(Cl)c1C(F)(F)F)C3)CCC2 [247b, 5-((R)-7-(3-amino-5-chloro-2-fluoro-6-(trifluoromethyl)phenyl)-2-(((S,Z)-2-(fluoromethylene)tetrahydro-1H-pyrrolizin-7a(5H)-yl)methoxy)-7,8-dihydro-5H-pyrano[4,3-d]pyrimidin-4-yl)-3-chloro-N,N-dimethyl-5,6,7,8-tetrahydro-4H-pyrazolo[1,5-a][1,4]diazepine-2-carboxamide] | > 500 | 615 |  | 
7 | CON(C)C(=O)c1nn2c(c1Cl)CN(c1nc(OC[C@@]34CCCN3C[C@H](F)C4)nc3c1CO[C@H](c1cc(N)cc(Cl)c1C(F)(F)F)C3)CCC2 [compound 448] |  |  | < 10 | 
8 | CC#Cc1cc(N)c(F)c([C@@H]2Cc3nc(OC[C@@]45CCCN4C[C@H](F)C5)nc(N4CCCn5nc(C(=O)N(C)C)c(Cl)c5C4)c3CO2)c1C(F)(F)F [compound 435] |  |  | < 10 | 
9 | CCc1c(C(=O)N(C)C)nn2c1CN(c1nc(OC[C@@]34CCCN3C[C@H](F)C4)nc3c1CO[C@H](c1cc(N)cc(Cl)c1C(F)(F)F)C3)CCC2 [compound 409] | 10 to 30 |  |  | 
10 | CN(C)C(=O)c1nn2c(c1Cl)CN(c1nc(OC[C@@]34CCCN3C[C@H](F)C4)nc3c1CO[C@@H](c1c(F)c(N)cc(F)c1C(F)(F)F)C3)CCC2 [214b] | > 500 | 1550 |  | 
11 | CS(=O)(=O)c1nn2c(c1Cl)CN(c1nc(OC[C@@]34CCCN3C[C@H](F)C4)nc3c1CO[C@@H](c1c(C(F)(F)F)ccc(N)c1F)C3)CCC2 [211b] | > 500 | > 10000 |  | 
12 | COc1c(C(=O)N(C)C)nn2c1CN(c1nc(OC[C@@]34CCCN3C[C@H](F)C4)nc3c1COC(c1c(F)c(N)cc(Cl)c1C(F)(F)F)C3)CCC2 (stereo partly drawn) [compound 249] | 101 to 500 | 113 |  | 
13 | CN(C)C(=O)c1nn2c(c1Cl)CN(c1nc(OC[C@@]34CCCN3C/C(=C\F)C4)nc3c1COC(c1c(C(F)(F)F)ccc(N)c1F)C3)CCC2 (stereo partly drawn) [compound 233, 5-(7-(3-amino-2-fluoro-6-(trifluoromethyl)phenyl)-2-(((S,Z)-2-(fluoromethylene)tetrahydro-1H-pyrrolizin-7a(5H)-yl)methoxy)-7,8-dihydro-5H-pyrano[4,3-d]pyrimidin-4-yl)-3-chloro-N,N-dimethyl-5,6,7,8-tetrahydro-4H-pyrazolo[1,5-a][1,4]diazepine-2-carboxamide] | 10 to 30 | 30 |  | 
14 | CN(C)C(=O)n1cc2c(n1)CCCN(c1nc(OC[C@@]34CCCN3C[C@H](F)C4)nc3c1COC(c1c(C(F)(F)F)ccc(N)c1F)C3)C2 (stereo partly drawn) [compound 228] | > 500 | 3070 |  | 
15 | CC#Cc1cc(N)cc([C@@H]2Cc3nc(OC[C@@]45CCCN4C/C(=C\F)C5)nc(N4CCCn5nc(C(=O)N(C)CC)cc5C4)c3CO2)c1C(F)(F)F [compound 428] |  |  | < 10 | 
